One test has as its target T1, Coagulation factor XII (Homo sapiens, UniProt P00748).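 Also: activated factor XIIa alpha cleaving a fluorogenic AMC peptide substrate; inhibitor potency from loss of enzyme activity.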
T1 sequence (P00748 whole entry): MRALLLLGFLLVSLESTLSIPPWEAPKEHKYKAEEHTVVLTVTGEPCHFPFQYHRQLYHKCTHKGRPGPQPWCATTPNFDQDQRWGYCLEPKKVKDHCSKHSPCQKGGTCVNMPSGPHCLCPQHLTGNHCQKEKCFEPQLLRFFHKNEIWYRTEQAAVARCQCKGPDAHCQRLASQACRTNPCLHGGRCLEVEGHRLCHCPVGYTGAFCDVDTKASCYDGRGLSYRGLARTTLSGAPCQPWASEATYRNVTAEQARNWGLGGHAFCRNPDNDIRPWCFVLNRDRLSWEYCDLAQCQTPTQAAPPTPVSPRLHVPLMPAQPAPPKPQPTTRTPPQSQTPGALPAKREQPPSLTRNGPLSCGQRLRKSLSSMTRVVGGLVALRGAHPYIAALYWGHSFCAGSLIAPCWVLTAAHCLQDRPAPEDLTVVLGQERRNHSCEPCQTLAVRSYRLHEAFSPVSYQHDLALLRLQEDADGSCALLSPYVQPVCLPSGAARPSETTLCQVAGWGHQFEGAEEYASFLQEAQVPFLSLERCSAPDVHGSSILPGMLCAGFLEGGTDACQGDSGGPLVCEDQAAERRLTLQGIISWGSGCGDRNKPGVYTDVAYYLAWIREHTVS
In kind it is functional.

Test [1] addresses Induced myeloid leukemia cell differentiation protein Mcl-1 (Homo sapiens, UniProt Q07820). In kind it is functional.
The nature of test [2]: cytotoxicity in HEK-293T cells, dose response, cytotoxicity control for BCR NF-kB inhibitor project, luminescence, B-cell screen hits (AID 489021).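 Also: HEK-293T cells carrying an NF-kB luciferase reporter; cells exposed to compound for about 14 hours before viability readout.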 The test is classed as functional, cell-based.
Test [3] has as its target Luciferin 4-monooxygenase (Photinus pyralis, UniProt P08659). In words: firefly luciferase enzyme inhibitors, dose response, biochemical, luminescence (AID 1891).
Test [4] in a line: Luminescence Cell-Based Dose Confirmation HTS to Identify Inhibitors of Platelet Dense Granule Release. [Related pubchem assays: 1663 (Primary HTS), 1678 (Summary of Project)]. The test is classed as functional.
Test [5] in a line: Luminescence Cell-Based Dose Response HTS to Identify Inhibitors of 5'UTR Stem-Loop Driven Prion Protein mRNA Translation in H4 Neuroglioblastoma Cells. [Related pubchem assays: 1827 (Project Summary), 1813 (Primary HTS)]. The test is classed as functional.
Test [6] can be described thus: inhibitors of SNCA 5'UTR-driven reporter translation, confirmation, H4 neuroglioma cells, luminescence (AID 1988). In kind it is functional, cell-based.
Test [7] can be described thus: inhibitors of firefly luciferase expression or activity, dose response, H4 neuroglioma cells, luminescence (AID 1990). In kind it is functional, cell-based.
The next test has as its target T2, Leucine aminopeptidase (Plasmodium falciparum 3D7, UniProt Q8IL11).
T2 sequence (Q8IL11 whole entry): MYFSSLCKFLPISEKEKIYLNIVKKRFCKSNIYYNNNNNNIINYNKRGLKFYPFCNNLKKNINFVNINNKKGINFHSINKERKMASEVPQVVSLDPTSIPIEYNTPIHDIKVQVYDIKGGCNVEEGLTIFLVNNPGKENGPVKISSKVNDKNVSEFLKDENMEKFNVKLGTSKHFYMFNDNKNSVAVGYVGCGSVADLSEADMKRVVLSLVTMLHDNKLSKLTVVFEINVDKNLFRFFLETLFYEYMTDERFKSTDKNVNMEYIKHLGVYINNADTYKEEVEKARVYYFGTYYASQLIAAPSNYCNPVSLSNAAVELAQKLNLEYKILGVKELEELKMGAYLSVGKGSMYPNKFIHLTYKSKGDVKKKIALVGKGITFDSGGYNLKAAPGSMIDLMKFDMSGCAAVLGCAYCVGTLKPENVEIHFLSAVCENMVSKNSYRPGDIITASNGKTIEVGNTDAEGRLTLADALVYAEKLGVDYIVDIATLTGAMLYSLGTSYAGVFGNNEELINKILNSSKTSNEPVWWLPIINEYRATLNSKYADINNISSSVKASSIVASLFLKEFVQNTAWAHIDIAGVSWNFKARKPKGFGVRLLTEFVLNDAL
As to the kind of experiment: P. falciparum M17LAP inhibitors, primary screen, biochemical, fluorogenic H-Leu-NHMec substrate, 1536-well (AID 1619). In kind it is functional.

A short description of a further test: cells. In kind it is functional.
A further test addresses T3, Estrogen receptor (Homo sapiens, UniProt P03372).
T3 sequence (P03372 whole entry): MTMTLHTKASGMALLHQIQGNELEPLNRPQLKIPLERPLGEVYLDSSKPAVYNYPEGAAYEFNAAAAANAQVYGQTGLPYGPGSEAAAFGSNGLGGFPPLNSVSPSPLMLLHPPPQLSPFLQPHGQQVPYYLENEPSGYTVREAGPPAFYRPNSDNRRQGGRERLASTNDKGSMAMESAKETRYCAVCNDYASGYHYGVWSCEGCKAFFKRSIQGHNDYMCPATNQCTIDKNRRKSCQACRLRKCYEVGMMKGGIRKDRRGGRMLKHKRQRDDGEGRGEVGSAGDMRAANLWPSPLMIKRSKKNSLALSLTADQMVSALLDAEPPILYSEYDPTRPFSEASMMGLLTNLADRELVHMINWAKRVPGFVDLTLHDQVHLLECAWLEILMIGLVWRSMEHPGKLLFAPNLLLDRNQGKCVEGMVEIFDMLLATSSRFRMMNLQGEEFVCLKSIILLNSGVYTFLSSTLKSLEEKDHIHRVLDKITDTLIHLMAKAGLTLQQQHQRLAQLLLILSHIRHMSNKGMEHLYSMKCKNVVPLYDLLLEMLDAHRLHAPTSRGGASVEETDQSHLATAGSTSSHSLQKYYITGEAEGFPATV

A further test concerns the target T4, Cytochrome P450 1A2 (Homo sapiens, UniProt P05177).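 Also: PubChem cytochrome P450 panel assay, CYP1A2 panel member.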
T4 sequence (P05177 whole entry): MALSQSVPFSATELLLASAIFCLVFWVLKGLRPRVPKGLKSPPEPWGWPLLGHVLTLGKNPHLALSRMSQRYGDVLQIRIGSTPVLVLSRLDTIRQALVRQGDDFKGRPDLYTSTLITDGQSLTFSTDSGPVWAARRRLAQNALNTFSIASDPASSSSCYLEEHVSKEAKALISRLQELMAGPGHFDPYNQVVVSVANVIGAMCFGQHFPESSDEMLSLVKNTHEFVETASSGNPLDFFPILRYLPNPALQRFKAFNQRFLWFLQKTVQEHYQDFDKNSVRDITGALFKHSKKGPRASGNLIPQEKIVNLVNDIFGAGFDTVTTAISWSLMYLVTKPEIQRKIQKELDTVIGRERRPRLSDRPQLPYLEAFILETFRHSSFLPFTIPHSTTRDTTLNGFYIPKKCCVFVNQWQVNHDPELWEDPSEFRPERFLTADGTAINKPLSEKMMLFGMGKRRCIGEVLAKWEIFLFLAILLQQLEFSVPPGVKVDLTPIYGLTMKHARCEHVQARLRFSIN

In another test the target is Cytochrome P450 2C9 (Homo sapiens, UniProt P11712).
The target of test [8] is T5, Microphthalmia-associated transcription factor (Homo sapiens, UniProt O75030).
T5 sequence (O75030 whole entry): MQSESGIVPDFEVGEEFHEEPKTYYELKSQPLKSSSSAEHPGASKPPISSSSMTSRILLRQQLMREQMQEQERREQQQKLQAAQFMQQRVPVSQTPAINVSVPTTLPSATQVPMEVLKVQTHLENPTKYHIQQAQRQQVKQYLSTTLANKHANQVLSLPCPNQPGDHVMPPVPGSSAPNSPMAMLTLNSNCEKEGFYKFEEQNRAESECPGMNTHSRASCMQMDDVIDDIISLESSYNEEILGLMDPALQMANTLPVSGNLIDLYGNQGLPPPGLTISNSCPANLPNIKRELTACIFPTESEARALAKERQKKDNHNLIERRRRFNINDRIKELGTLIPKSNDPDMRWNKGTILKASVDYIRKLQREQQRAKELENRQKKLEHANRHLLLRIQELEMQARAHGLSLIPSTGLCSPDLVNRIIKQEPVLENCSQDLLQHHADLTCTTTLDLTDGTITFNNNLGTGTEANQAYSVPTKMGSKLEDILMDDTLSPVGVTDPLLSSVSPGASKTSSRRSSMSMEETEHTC
In words: TRPM1 promoter luciferase signal decrease, dose response, MITF inhibitor project, cell-based, SK-MEL-5, cherry-picked, set 3 (AID 493073).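 Also: SK-MEL-5 melanoma cells with luciferase driven by the MITF target TRPM1 promoter.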 The test is classed as functional.

Calls of active or inactive are those of the source.

Chain of Induced myeloid leukemia cell differentiation protein Mcl-1 (Q07820 whole entry): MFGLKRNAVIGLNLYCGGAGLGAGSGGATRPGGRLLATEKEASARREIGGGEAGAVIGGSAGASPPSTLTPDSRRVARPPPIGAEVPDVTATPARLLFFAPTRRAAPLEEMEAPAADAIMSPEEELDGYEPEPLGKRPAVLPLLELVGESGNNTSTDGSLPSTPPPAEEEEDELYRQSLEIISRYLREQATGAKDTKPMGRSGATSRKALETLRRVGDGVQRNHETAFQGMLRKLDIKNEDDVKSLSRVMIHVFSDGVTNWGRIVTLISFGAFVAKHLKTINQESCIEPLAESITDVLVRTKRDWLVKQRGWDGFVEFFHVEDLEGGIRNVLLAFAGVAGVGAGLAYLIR
Chain of Luciferin 4-monooxygenase (P08659 whole entry): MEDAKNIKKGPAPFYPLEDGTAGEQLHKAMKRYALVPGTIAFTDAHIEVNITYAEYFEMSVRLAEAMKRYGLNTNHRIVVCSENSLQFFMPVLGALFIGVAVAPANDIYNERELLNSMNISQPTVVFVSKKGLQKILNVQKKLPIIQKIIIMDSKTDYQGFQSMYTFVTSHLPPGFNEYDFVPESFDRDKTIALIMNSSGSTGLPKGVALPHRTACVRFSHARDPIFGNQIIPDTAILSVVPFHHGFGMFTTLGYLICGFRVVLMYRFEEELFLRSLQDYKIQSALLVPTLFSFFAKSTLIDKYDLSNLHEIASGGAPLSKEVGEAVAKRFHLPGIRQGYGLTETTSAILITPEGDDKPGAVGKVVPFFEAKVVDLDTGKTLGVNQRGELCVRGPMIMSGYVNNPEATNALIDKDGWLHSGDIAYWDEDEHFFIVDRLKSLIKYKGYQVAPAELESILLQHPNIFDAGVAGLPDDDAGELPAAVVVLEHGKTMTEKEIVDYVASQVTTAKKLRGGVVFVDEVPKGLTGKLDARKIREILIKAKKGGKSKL
Chain of Cytochrome P450 2C9 (P11712 whole entry): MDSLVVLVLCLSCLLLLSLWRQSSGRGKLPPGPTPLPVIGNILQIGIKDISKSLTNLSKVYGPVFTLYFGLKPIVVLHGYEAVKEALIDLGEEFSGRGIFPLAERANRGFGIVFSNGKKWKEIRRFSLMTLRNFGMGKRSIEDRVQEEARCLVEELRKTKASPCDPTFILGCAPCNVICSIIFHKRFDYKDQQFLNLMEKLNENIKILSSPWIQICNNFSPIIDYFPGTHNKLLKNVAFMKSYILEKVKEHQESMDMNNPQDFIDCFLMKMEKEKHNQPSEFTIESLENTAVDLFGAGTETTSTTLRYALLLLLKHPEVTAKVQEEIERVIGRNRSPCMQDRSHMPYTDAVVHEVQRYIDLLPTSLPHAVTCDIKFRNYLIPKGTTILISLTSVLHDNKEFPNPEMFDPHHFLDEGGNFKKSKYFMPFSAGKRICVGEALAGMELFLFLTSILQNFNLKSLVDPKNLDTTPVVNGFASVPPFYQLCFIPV

In general, IC50 refers to the point on the concentration scale where inhibition reaches its midpoint. For the compound `O=C(CSc1nc2ccccc2s1)NC1CCCC1`, the IC50 on Coagulation factor XII is > 50 µM (inactive).
Take `Cc1ccc(-n2nc(C)cc2NC(=O)COc2cc(C)cc3oc(=O)c4c(c23)CCC4)cc1`: the IC50 in test [1] is < 0.4 µM (not active).
For `CCOC(=O)C1CCN(c2ncnc3c2cnn3-c2ccc(OC)cc2)CC1`, the IC50 in test [2] is > 80 µM (inactive).
A word on the EC50: it is the concentration giving half of the maximal effect. In the case of `Cc1ccc2sc(NC(=O)C3CC3)nc2c1C`, the EC50 in test [3] and in [4] was > 112 µM (not active) each time.
With `Cc1nc2cc(-c3ccccc3)nn2c(C)c1CCC(=O)N1CCC2(CC1)OCCO2`, the figures for the EC50 in test [5], in [6] and in test [7] were 14.6 µM (active), 0.259 µM (active) and < 0.1 µM (active), respectively. In [2], the IC50 is > 80 µM (inactive).
As for `Cc1ccc(-c2nn3c(C)nnc3c3ccccc23)cc1S(=O)(=O)NC(C)(C)CO`, the IC50 in test [2] was > 80 µM (inactive).
With `O=C1NC(=O)N(Cc2ccco2)C(=O)/C1=C/NC1CC1`, the EC50 in test [3] and in test [4] was > 112 µM (not active) each time.
Take `O=C(c1cccnc1)C1CCCN(Cc2nc(-c3cnccn3)no2)C1` (centres undefined): the IC50 on Coagulation factor XII is > 50 µM (inactive).
`O=C1NC(=O)N(Cc2ccccc2)C(=O)/C1=C\c1ccco1`: the IC50 at Leucine aminopeptidase is 62.3 µM (active).
For `COc1ccc(-c2ccc(C)cc2)cc1[C@H]1[C@H]2C=CC[C@@H](C)[C@@H]2C(=O)N1Cc1ccccc1`, the IC50 in test [2] was > 80 µM (inactive).
In the case of `NC(=S)n1[nH]c(-c2ccc([N+](=O)[O-])cc2)c(/N=N/c2ccc(O)cc2)c1=O`, the IC50 in “cells” was 49.6 µM (active); in [1], 3.47 µM (active); at Estrogen receptor, 11 µM (active).
Regarding `CCOC(=O)c1c(-c2ccc(C)o2)csc1N`, the 50% effective concentration (EC50) in [3] and in test [4] was > 112 µM (not active) in each case.
Consider `CCOc1c(Br)cc(CNc2nc[nH]n2)cc1OC`, for which the concentration for half-maximal inhibition (IC50) on Leucine aminopeptidase was 22.7 µM (active).
In the case of `O=C1CN(Cc2ccccc2)/C(=N\Cc2ccco2)S1`, the IC50 on Coagulation factor XII is > 50 µM (inactive).
As for `CC(C)(C)SCCNS(=O)(=O)c1ccccc1`, at Coagulation factor XII, the IC50 is > 50 µM (inactive).
As usually defined, the AC50 is the concentration at which the activity in the assay is half-maximal. Take `Cc1ccc(-c2c(C#N)c(N)n(-c3ccccc3)c(=O)c2C#N)cc1`: the concentration at half-maximal activity (AC50) at Cytochrome P450 1A2 was 11.2 µM (inconclusive); on Cytochrome P450 2C9, 7.94 µM (inconclusive). Further, the values for the EC50 in test [3] and in [4] were > 112 µM (not active) and 3.25 µM (active), respectively.
In the case of `N[C@@H](Cc1cc(I)c(Oc2ccc(O)c(I)c2)c(I)c1)C(=O)O` [LIOTHYRONINE SODIUM], the IC50 in test [1] is 14.7 µM (active).
As for `O=C(CCl)N1CCN(S(=O)(=O)c2ccc3c(c2)CCC3)CC1`, the AC50 in [8] was 20.7 µM (active). Moreover, the IC50 in [2] was > 80 µM (inactive).
As to `COc1cccc(C(c2sc3nc(C)nn3c2O)N2CCN(c3ccccc3F)CC2)c1` (centres undefined), the 50% effective concentration (EC50) in [3] and in [4] was > 112 µM (not active) each time.
As for `COc1ccc(S(=O)(=O)NCC(c2cccnc2)N2CCN(C)CC2)cc1C` (centres undefined), the EC50 in test [3] and in test [4] was > 112 µM (not active) each time.

These data come from ChEMBL document CHEMBL1201862, “PubChem BioAssay data set” (2004).
